Experiment [1] relates to influenza A. Format: cell-based. The conditions noted are these: FluA, 24 hours, control 189 ± 012.
The subject of experiment [2] is influenza B. Format: cell-based. The conditions noted are these: FluB, 24 hours, control 455 ± 022.
For experiment [3], the system named is adenovirus. Format: cell-based. The following applies: Adeno, 24 hours, control 863 ± 100.
In experiment [4] the test system is RSV. Format: cell-based. The following applies: 24 hours, control 116 ± 012.
The test system of experiment [5] is parainfluenza 1. Format: cell-based. The conditions noted are these: Para1, 24 hours, control 245 ± 018.
The subject of experiment [6] is parainfluenza 2. In kind it is cell-based. The conditions noted are these: Para2, 24 hours, control 243 ± 012.
Experiment [7] relates to parainfluenza 3. Format: cell-based. The following applies: Para3, 24 hours, control 142 ± 014.
The subject of experiment [8] is human coronavirus 229E. Description: Replication of human coronavirus 229E (inventors' data, E64). The following applies: no conditions given. In kind it is cell-based.
In experiment [9] the test system is SARS-coronavirus. The following applies: Yount et al. PNAS 100:12995-13000 (2003); cited from earlier work.
Where [10] appears, read: Glycycrrhizin 0.152 micrograms/ml.
Where [11] appears, read: Glycycrrhizin 1.216 micrograms/ml.
Setting [12] is: Glycycrrhizin 6.08 micrograms/ml.

The structures appear in SMILES notation. Where two headings read alike, the source gives them in different places.

The values below come from US7846655B2, “Compositions and methods for detecting a non plus-stranded RNA virus” (priority 2003, dated 2010).

On to `CC(C)C[C@H](NC(=O)[C@H]1O[C@@H]1C(=O)O)C(=O)NCCCCN=C(N)N` (relative stereo) [E64, trans-Epoxysuccinyl-L-leucylamido-(4-guanidino)butane], for which the “Number of Infected Foci In R-Mix Cell Cultures” value (“Number” below) in [1] (E64 0.5 micrograms/ml) is recorded as 174; in experiment [1] (E64 5 micrograms/ml) it was 179; in [1] (E64 10 micrograms/ml) it was 176; in experiment [2] (E64 0.5 micrograms/ml), 398; in experiment [2] (E64 5 micrograms/ml), 328; in experiment [2] (E64 10 micrograms/ml), 323. Further, the “Number” value in experiment [3] (E64 0.5 micrograms/ml) came to 904; in [3] (E64 5 micrograms/ml) it was 868; in [3] (E64 10 micrograms/ml), 865; in [4] (E64 0.5 micrograms/ml) it was 107; in experiment [4] (E64 5 micrograms/ml), 115; in [4] (E64 10 micrograms/ml), 103. Further, the “Number” value is recorded as 251 in experiment [5] (E64 0.5 micrograms/ml); 243 in [5] (E64 5 micrograms/ml); 207 in [5] (E64 10 micrograms/ml); 223 in experiment [6] (E64 0.5 micrograms/ml); 221 in experiment [6] (E64 5 micrograms/ml); 205 in [6] (E64 10 micrograms/ml). The “Number” value is listed as 127 in experiment [7] (E64 0.5 micrograms/ml) and 99 in experiment [7] (E64 5 micrograms/ml). Also, the “replication of human coronavirus 229E” value in experiment [8] was “inhibition in replication”.
Regarding `CCCCC[C@H](CC(=O)NO)C(=O)N[C@H](C(=O)N1CCC[C@H]1CO)C(C)C` [Actinonin], the “Number” value in [1] (Actinonin 10 micrograms/ml) is on record as 171; in experiment [1] (Actinonin 20 micrograms/ml), 122; in experiment [1] (Actinonin 40 micrograms/ml), 118; in experiment [2] (Actinonin 10 micrograms/ml), 317; in [2] (Actinonin 20 micrograms/ml), 260; in [2] (Actinonin 40 micrograms/ml) it was 190. Moreover, the “Number” value was found to be 781 in [3] (Actinonin 10 micrograms/ml); 383 in experiment [3] (Actinonin 20 micrograms/ml); 147 in experiment [3] (Actinonin 40 micrograms/ml); 103 in experiment [4] (Actinonin 10 micrograms/ml); 64 in experiment [4] (Actinonin 20 micrograms/ml); 41 in experiment [4] (Actinonin 40 micrograms/ml). Further, the “Number” value amounted to 222 in experiment [5] (Actinonin 10 micrograms/ml); 191 in experiment [5] (Actinonin 20 micrograms/ml); 160 in [5] (Actinonin 40 micrograms/ml); 220 in [6] (Actinonin 10 micrograms/ml); 196 in experiment [6] (Actinonin 20 micrograms/ml); 151 in experiment [6] (Actinonin 40 micrograms/ml). Further, the “Number” value in experiment [7] (Actinonin 10 micrograms/ml) stood at 115; in experiment [7] (Actinonin 20 micrograms/ml), 104; in experiment [7] (Actinonin 40 micrograms/ml), 75.
With `CCOC(=O)[C@H]1O[C@@H]1C(=O)N[C@@H](CC(C)C)C(=O)NCCC(C)C` [(2S,3S)transepoxysuccinyl-L-leucylamido-3-methylbutane ethyl ester], the “replication of SARS-coronavirus” value in experiment [9] is given as “inhibition in replication”.
In the case of `CC1(C)[C@@H](O[C@H]2O[C@H](C(=O)O)[C@@H](O)[C@H](O)[C@H]2O[C@@H]2O[C@H](C(=O)O)[C@@H](O)[C@H](O)[C@H]2O)CC[C@]2(C)[C@H]3C(=O)C=C4[C@@H]5C[C@@](C)(C(=O)O)CC[C@]5(C)CC[C@@]4(C)[C@]3(C)CC[C@@H]12` [Glycycrrhizin, Glycyrrhizin], the “Number” value in experiment [1] (setting [10]) is on record as 218; in [1] (setting [11]), 175; in experiment [1] (setting [12]) it was 163; in experiment [2] (setting [10]) it was 426; in experiment [2] (setting [11]), 402; in experiment [2] (setting [12]) it was 273. For the same molecule, the “Number” value in [3] (setting [10]) turned out to be 766; in [3] (setting [11]) it was 938; in experiment [3] (setting [12]), 1061; in [4] (setting [10]), 130; in [4] (setting [11]) it was 103; in [4] (setting [12]), 53. Also, the “Number” value in experiment [5] (setting [10]) is given as 268; in [5] (setting [11]), 233; in experiment [5] (setting [12]) it was 295; in experiment [6] (setting [10]), 265; in experiment [6] (setting [11]), 257; in [6] (setting [12]), 281. Also, the figures for the “Number” value in experiment [7] (setting [10]), in experiment [7] (setting [11]) and in [7] (setting [12]) were 138, 149 and 138, respectively.
